Experimental data as given in patent US9341616B2, “Sweet taste receptor chimeric proteins and use thereof” (AJINOMOTO CO., INC., priority 2014, dated 2016).
Residues, ends and D or L forms follow the SMILES beside them.

What was measured:
[1] = target: hT1R2/T1R3mosaicB (UniProt Q8TE23+Q925D8, A558R/A588V/A645S/A698V/A702T/A793V/A807V/A88D/C582S/C678S/E725V/F541I/F612A/F622V/F695L/F71L/G86K/H728R/I152V/I617V/I706V/I740A/I803L/K555R/K565R/K818R/K827G/L151M/L560F/L684P/L68N/L72W/L735F/L823M/L825Q/M644L/M744T/M74L/N547G/N675D/P545F/P561R/P564S/P67S/Q123R/Q550E/Q611L/Q757R/Q795R/Q831P/R632Q/S112P/S124D/S576L/S595F/S610P/S635P/S637R/S679G/S717H/T109A/T542A/T663I/T694M/T813A/V120A/V573A/V584A/V718M/V723A/V729T/V738A/V805L/V812A/V821L/W599R/W676R/W824R/Y680C/Y794L); conditions: Table 6; genes hT2/T1R3mB (hT1R2, T1R3mB); HEK293E cells
[2] = target: h-mT1R2-EX5/mT1R3 (UniProt Q8TE23+Q925D8, A537S/A564V/A568V/A570T/A649T/A658V/A782V/E530V/E534N/E542M/E548N/F525Y/F665L/G696N/G701T/H528R/I490V/I510L/I518V/I595M/I643V/I645L/I692L/I695G/K504M/K626T/K714N/L521P/L571I/L578I/L610P/L631F/L636F/L639V/L688V/L702I/L734M/L800F/M492I/M616G/M682V/M690V/M748V/N540G/N541S/N721H/P638T/P824S/Q536L/Q546K/Q555R/Q676H/R498S/R667S/S501P/S547N/S550A/S628F/S663R/S670G/S681F/S703N/S727G/S784D/S804G/T529S/T549I/T609V/T629S/T642S/T705I/T706G/T716I/V508I/V512P/V557A/V585L/V613L/V617M/V673M/V687A/V691A/V694A/V718L/V741L/V774I/V791M/Y533F/Y615F/Y671F/Y769S/Y783H); conditions: Table 4; genes h-mTEX5/mT3 (h-mT1R2-EX5, mT1R3); HEK293E cells
Chain of h-mT1R2-EX5/mT1R3 (Q8TE23 with tags, fused parts or gaps with the stated changes limits assumed): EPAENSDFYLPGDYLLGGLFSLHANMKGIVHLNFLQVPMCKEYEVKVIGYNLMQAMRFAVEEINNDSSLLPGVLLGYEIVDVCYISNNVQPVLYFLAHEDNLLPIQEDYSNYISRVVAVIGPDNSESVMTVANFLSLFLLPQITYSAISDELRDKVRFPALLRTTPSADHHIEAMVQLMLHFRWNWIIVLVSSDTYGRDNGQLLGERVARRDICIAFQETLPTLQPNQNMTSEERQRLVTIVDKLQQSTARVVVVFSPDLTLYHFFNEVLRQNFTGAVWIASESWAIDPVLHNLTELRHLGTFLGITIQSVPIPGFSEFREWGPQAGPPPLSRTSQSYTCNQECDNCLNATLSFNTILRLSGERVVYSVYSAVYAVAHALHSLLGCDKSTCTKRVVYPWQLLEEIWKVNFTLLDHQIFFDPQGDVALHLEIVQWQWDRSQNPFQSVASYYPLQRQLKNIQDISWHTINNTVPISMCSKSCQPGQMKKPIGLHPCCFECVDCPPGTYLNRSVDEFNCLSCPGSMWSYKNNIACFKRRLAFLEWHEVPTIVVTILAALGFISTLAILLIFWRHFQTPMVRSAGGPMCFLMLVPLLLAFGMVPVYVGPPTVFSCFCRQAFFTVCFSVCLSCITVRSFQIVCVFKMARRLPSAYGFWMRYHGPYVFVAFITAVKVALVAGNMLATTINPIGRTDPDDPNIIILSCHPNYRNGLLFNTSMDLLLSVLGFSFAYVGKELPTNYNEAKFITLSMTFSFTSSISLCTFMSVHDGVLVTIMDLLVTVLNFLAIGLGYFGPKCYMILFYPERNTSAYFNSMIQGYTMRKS
Chain of h-mT1R2-EX5/mT1R3 (Q925D8 21-858, stated change not applied): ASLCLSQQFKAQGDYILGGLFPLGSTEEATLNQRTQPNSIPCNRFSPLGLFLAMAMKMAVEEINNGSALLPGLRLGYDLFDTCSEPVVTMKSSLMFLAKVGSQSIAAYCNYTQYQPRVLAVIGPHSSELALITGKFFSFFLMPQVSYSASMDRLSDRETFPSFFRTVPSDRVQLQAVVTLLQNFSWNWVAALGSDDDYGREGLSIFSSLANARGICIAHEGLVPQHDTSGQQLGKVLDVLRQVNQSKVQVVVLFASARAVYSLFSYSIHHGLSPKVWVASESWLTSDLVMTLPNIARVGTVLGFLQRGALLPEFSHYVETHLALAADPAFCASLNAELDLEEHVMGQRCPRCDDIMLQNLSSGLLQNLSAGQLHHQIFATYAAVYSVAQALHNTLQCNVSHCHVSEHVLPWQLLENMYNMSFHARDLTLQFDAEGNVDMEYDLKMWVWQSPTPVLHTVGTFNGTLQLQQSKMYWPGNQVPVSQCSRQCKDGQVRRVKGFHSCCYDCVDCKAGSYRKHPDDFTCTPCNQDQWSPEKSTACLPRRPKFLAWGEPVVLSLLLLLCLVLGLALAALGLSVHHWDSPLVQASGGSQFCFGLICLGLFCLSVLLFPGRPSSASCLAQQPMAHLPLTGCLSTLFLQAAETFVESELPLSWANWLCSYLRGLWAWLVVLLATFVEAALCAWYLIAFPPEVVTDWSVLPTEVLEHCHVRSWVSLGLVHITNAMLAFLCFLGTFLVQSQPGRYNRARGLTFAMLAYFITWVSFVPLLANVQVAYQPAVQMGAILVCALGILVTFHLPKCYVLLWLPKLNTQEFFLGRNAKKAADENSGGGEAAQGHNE

Chain of hT1R2/T1R3mosaicB (Q8TE23 20-839, stated change not applied): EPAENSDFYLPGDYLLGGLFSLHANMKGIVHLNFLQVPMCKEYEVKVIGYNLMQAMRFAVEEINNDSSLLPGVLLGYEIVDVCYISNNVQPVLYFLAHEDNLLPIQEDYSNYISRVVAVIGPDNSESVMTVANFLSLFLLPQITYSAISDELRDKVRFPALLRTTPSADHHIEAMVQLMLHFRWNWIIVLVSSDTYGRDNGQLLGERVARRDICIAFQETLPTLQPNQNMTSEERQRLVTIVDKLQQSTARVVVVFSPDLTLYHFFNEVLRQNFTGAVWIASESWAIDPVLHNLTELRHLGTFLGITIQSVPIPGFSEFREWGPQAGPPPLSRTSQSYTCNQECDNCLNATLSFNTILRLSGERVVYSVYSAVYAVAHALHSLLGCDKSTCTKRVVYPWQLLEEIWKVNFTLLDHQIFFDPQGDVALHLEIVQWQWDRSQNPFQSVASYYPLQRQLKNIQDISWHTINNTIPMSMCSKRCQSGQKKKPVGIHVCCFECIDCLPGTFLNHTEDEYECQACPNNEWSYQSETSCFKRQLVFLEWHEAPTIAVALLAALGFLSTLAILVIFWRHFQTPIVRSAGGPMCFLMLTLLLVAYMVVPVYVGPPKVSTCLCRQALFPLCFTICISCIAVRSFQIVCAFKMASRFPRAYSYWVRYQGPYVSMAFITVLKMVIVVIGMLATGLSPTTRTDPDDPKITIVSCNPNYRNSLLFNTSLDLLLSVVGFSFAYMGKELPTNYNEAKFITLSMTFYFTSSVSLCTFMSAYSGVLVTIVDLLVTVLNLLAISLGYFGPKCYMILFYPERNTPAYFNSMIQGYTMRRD
Chain of hT1R2/T1R3mosaicB (Q925D8 with tags, fused parts or gaps with the stated changes limits assumed): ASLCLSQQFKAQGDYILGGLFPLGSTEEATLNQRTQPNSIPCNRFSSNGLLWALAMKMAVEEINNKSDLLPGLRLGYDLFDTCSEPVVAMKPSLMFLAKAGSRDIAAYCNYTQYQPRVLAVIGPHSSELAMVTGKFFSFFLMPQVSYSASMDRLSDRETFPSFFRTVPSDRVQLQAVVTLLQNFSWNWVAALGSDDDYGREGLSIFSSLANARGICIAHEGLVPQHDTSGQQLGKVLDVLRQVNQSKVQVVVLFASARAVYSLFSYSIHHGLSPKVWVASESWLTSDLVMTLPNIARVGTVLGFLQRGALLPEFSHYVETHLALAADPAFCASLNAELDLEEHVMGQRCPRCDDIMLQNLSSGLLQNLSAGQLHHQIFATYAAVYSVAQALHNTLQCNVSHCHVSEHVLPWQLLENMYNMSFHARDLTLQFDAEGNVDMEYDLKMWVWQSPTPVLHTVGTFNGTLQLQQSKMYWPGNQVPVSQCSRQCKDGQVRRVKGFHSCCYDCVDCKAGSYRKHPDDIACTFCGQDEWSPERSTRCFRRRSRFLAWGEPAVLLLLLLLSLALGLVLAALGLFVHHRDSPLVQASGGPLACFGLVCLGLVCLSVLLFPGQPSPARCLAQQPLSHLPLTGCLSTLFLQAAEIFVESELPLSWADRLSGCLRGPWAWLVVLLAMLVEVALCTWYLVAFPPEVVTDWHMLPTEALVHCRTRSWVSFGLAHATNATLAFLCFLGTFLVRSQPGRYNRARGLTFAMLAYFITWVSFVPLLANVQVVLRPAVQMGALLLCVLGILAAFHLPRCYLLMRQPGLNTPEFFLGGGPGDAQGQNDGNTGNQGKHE

Row | SMILES | S/N [1] | S/N [2]
1 | COc1ccc(CCC(=O)c2c(O)cc(O[C@@H]3O[C@H](CO)[C@@H](O)[C@H](O)[C@H]3O[C@@H]3O[C@@H](C)[C@H](O)[C@@H](O)[C@H]3O)cc2O)cc1O [NHDC, neohesperidin dihydrochalcone] | 4.8 | –
2 | OC[C@H]1O[C@@](CO)(O[C@H]2O[C@H](CO)[C@@H](O)[C@H](O)[C@H]2O)[C@@H](O)[C@@H]1O [Sucrose, sucrose] | 4.7 | 3.7
3 | O=C1NS(=O)(=O)c2ccccc21.[Na] [Saccharin Na, sodium saccharin] | 5.4 | 3.8
4 | COC(=O)[C@H](Cc1ccccc1)NC(=O)[C@@H](N)CC(=O)O [Aspartame, aspartame] (HELM PEPTIDE1{D.F.[CO[*:1]]}$$$$V2.0) | 5.4 | 5.5
5 | COC(=O)[C@H](Cc1ccccc1)NC(=O)[C@H](CC(=O)O)NCCCc1ccc(OC)c(O)c1 [Advantame, advantame] | 8.5 | 7.0
6 | CC1=CC(=O)NS(=O)(=O)O1 [Acesulfame K, acesulfame potassium] | 5.5 | 3.7
7 | COC(=O)[C@H](Cc1ccccc1)NC(=O)[C@H](CC(=O)O)NCCC(C)(C)C [Neotame, neotame] | 6.0 | 5.2
8 | C[C@H](NC(=Nc1ccc(C#N)cc1)NCC(=O)O)c1ccccc1 [SC-45647, [3-[(S)-1-phenylethyl]-2-(4-cyanophenyl)guanidino]acetic acid] | 7.0 | 5.3
9 | OC[C@H]1O[C@H](O[C@]2(CCl)O[C@H](CCl)[C@@H](O)[C@@H]2O)[C@H](O)[C@@H](O)[C@H]1Cl [Sucralose, sucralose] | 4.1 | 5.9
